We go through seven compounds from patent publication US20240270821A1, “GIP/GLP1/GCG TRI-RECEPTOR AGONISTS AND USES THEREOF” (priority 2023, published 2024).

Holding throughout (type): cell-based
The target of test [1] is T1, hGLP-1R (Homo sapiens, UniProt P43220). The test can be described thus: Functional cAMP activity in the presence of 1% HSA. The settings on record: read-out: cAMP Rel EC50, hGLP-1R.
The target in a further test is human GcgR (Homo sapiens, UniProt P47871). In words: Functional cAMP activity in the presence of 1% HSA. The settings on record: read-out: cAMP Rel EC50, hGcgR.
Sequence of human GcgR (P47871 26-477): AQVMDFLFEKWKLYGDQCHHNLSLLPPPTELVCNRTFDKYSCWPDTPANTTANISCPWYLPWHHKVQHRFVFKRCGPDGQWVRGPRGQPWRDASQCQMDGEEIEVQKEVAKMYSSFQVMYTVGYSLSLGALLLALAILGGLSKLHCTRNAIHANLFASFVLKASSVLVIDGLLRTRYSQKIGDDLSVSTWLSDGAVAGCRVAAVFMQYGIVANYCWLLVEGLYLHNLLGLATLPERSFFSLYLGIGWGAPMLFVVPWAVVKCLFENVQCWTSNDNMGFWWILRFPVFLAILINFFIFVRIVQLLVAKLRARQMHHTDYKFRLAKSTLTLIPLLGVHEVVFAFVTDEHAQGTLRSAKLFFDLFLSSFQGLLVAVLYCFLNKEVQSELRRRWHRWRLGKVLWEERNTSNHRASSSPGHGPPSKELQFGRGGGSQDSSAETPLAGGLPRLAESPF
The target in test [2] is T1, hGLP-1R. The test can be described thus: Functional cAMP activation in the presence of 0.1% casein (no HSA). The note with it: read-out: Relative cAMP EC50, hGLP-1R.
In test [3] the target is T2, hGIPR (Homo sapiens, UniProt P48546).
T2 sequence (P48546 22-466): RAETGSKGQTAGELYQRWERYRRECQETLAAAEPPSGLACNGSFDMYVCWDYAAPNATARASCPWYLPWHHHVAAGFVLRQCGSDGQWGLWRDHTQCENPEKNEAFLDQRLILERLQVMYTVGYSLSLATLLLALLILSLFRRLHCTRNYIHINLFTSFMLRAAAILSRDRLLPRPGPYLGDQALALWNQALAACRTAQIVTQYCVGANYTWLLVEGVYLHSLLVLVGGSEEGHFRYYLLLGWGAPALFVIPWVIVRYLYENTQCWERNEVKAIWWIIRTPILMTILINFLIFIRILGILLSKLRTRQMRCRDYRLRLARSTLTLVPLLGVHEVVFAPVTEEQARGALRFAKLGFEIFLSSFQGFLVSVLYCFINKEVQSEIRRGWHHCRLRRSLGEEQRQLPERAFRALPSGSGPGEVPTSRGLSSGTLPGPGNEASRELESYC
Described as above. The note with it: read-out: Relative cAMP EC50, hGIPR.

In another test the target is hGcgR (Homo sapiens, UniProt P47871). The test is described as above. The note with it: read-out: Relative cAMP EC50, hGcgR.
Sequence of hGcgR (P47871 26-477): as the sequence (P47871 26-477) above
The target in test [4] is T2, hGIPR. In words: Functional cAMP activity in the presence of 1% HSA. The settings on record: read-out: cAMP Rel EC50, hGIPR.
Setting [5] is: in the presence of 0.1% casein (no HSA), geometric mean.

Like-named read-outs stand apart in the source and are kept apart here. Starred links: 1 amine or outer side, 2 acyl side, 3 side chain; linkers in the order of their positions; H or OH if unused. Non-standard residues stand in square brackets, D forms with d. Groups on a side chain read outwards from the residue. No end group written: not given here. *: point of attachment. C18 diacid = O=C(O)CCCCCCCCCCCCCCCCC(=O)*; αMePhe(2-F) = C[C@](N)(Cc1ccccc1F)C(=O)O; γGlu = O=C(O)[C@H](CCC(=O)[*:2])N[*:1]; αMe4Pal = C[C@](N)(Cc1ccncc1)C(=O)O; αMeY = C[C@](N)(Cc1ccc(O)cc1)C(=O)O; 4Pal = N[C@@H](Cc1ccncc1)C(=O)O; αMeL = CC(C)C[C@](C)(N)C(=O)O; αMeS = C[C@](N)(CO)C(=O)O; Orn = NCCC[C@H](N)C(=O)O; AEEA = NCCOCCOCC(=O)O; Aib = CC(C)(N)C(=O)O
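Throughout, for Relative cAMP EC50, hGIPR: intracellular cAMP rise after 30 min at 37 °C read by HTRF against a standard curve, scaled between buffer alone (0%) and top control ligand concentration (100%), four-parameter fit.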
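Throughout, for Relative cAMP EC50, hGLP-1R: intracellular cAMP rise after 30 min at 37 °C read by HTRF, normalized between buffer only (0%) and maximal control ligand (100%), four-parameter variable-slope fit.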
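Throughout, for Relative cAMP EC50, hGcgR: intracellular cAMP rise after 30 min at 37 °C, read by HTRF against a cAMP standard curve, scaled from buffer only (0%) to maximal control ligand response (100%).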

T1 sequence (P43220 24-463): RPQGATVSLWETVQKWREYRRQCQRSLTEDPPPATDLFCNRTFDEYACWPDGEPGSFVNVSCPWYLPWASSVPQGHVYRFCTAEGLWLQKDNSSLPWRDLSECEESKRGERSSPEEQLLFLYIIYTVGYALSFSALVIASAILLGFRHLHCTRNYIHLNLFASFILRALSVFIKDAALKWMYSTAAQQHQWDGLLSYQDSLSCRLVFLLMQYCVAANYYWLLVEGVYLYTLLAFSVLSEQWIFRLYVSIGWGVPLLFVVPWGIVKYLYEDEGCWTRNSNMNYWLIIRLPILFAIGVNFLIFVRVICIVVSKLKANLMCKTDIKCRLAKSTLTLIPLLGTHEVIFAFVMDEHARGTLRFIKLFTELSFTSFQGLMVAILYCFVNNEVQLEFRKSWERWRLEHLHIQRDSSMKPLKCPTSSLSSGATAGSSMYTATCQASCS

In general, EC50 refers to the concentration that produces a half-maximal response. For “H-Y[Aib]QGTFTSD[4Pal]SR[αMeL]LDKK([AEEA-γGlu-C18 diacid])AQ[αMe4Pal]AFIE[αMe4Pal]LIEGGPSSGAPPPSGSEE-NH2 [Example 956]”, the EC50 came to 643 nM on hGLP-1R [1]; 406 nM at human GcgR; 4.83 nM on hGLP-1R [2] (setting [5]); 0.26 nM on hGIPR [3] (setting [5]); 2.17 nM on hGcgR (setting [5]); 32.1 nM at hGIPR [4].
Consider “H-Y[Aib]QGTFTSD[4Pal]SQ[αMeL]LDKK([γGlu-γGlu-C18 diacid])AQ[αMe4Pal]AFIEYLIE[Aib]GPSSGAPPPSGE-NH2 [Example 882]”, for which the EC50 on hGLP-1R [1] turned out to be 361 nM; at human GcgR, 559 nM; on hGLP-1R [2] (setting [5]), 2.33 nM; on hGIPR [3] (setting [5]), 0.129 nM; on hGcgR (setting [5]), 2.73 nM; at hGIPR [4], 26.6 nM.
Turning to “H-Y[Aib]QGTFTSD[4Pal]SQ[αMeL]LDKK([γGlu-γGlu-C18 diacid])AQ[αMe4Pal]AFIEYLIE[Aib]GPSSGAPPPSGSGE-NH2 [Example 891]”, the concentration for a half-maximal effect (EC50) on hGLP-1R [1] is 330 nM; at human GcgR, 581 nM; on hGLP-1R [2] (setting [5]), 3.25 nM; on hGIPR [3] (setting [5]), 0.155 nM; on hGcgR (setting [5]), 3.14 nM; on hGIPR [4] it was 16 nM.
Regarding “H-Y[Aib]QGTFTSDFS[Orn][αMeL]LDKK([AEEA-γGlu-γGlu-C18 diacid])AQ[Aib]AFIEYLLE[Aib]GHSSGAPPPSGS-NH2 [Example 243]”, the EC50 stood at 610 nM on hGLP-1R [1]; 711 nM on human GcgR; 6.46 nM at hGLP-1R [2] (setting [5]); 0.178 nM on hGIPR [3] (setting [5]); 6.86 nM at hGcgR (setting [5]); 12.1 nM at hGIPR [4].
With `CC[C@H](C)[C@H](NC(=O)[C@H](Cc1ccccc1)NC(=O)[C@H](C)NC(=O)C(C)(C)NC(=O)[C@H](CCC(N)=O)NC(=O)[C@H](C)NC(=O)[C@H](CCCCNC(=O)COCCOCCNC(=O)CC[C@H](NC(=O)CCCCCCCCCCCCCCCCC(=O)O)C(=O)O)NC(=O)[C@H](CCCCN)NC(=O)[C@H](CC(=O)O)NC(=O)[C@H](CC(C)C)NC(=O)[C@H](CC(C)C)NC(=O)[C@@H](NC(=O)[C@H](CO)NC(=O)[C@H](Cc1ccc(O)cc1)NC(=O)[C@H](CC(=O)O)NC(=O)[C@H](CO)NC(=O)[C@@H](NC(=O)[C@](C)(Cc1ccccc1F)NC(=O)[C@@H](NC(=O)CNC(=O)[C@H](CCC(N)=O)NC(=O)C(C)(C)NC(=O)[C@@H](N)Cc1ccc(O)cc1)[C@@H](C)O)[C@@H](C)O)[C@@H](C)CC)C(=O)N[C@@H](CCC(=O)O)C(=O)N[C@@H](Cc1ccc(O)cc1)C(=O)N[C@@H](CC(C)C)C(=O)N[C@@H](CCC(=O)O)C(=O)N[C@@H](CCC(=O)O)C(=O)NCC(=O)NCC(=O)N1CCC[C@H]1C(=O)N[C@@H](CO)C(=O)N[C@@H](CO)C(=O)NCC(=O)N[C@@H](C)C(=O)N1CCC[C@H]1C(=O)N1CCC[C@H]1C(=O)N1CCC[C@H]1C(=O)N[C@@H](CO)C(=O)N[C@@H](CCC(=O)O)C(=O)NCC(N)=O` [Example 398], the EC50 at hGLP-1R [1] was found to be 42.2 nM; at human GcgR it was 375 nM; on hGLP-1R [2] it was 0.186 nM; on hGIPR [3], 0.0318 nM; at hGcgR it was 2.16 nM; on hGIPR [4], 12.4 nM.
Regarding “H-Y[Aib]QGT[αMePhe(2-F)]TSD[4Pal][αMeS]I[αMeL]LD[Orn]K([γGlu-γGlu-C18 diacid])AQ[Aib][Orn]FI[dE][αMeY]LTEGGPSSGEPPPSGTGE-NH2 [Example 543]”, the EC50 on hGLP-1R [1] stood at 32 nM; at human GcgR it was 300 nM; on hGLP-1R [2] it was 0.41 nM; on hGIPR [3] it was 0.0319 nM; on hGcgR, 4.56 nM; on hGIPR [4] it was 1.88 nM.
Take “Y[Aib]QGTFTSD[4Pal]SQ[αMeL]LD[Orn]K([dE-γGlu-C18 diacid])AQ[αMe4Pal]AFIEYLIA[Aib]GPSSGEPPPSGSEE-NH2 [Example 1101]”: the EC50 at hGLP-1R [1] stood at 246 nM; on human GcgR it was 827 nM; on hGLP-1R [2] (setting [5]), 1.75 nM; on hGIPR [3] (setting [5]), 0.0592 nM; on hGcgR (setting [5]), 4.72 nM; at hGIPR [4], 6.31 nM.
